Data on three compounds can be found in PMC12922749 (Science Advances, 2026).

Like-named read-outs stand apart in the source and are kept apart here.

What all share (assay): SPR
Holding throughout (assay type): binding

Experiment [1] concerns the target Nur77.
Experiment [2] has as its target Nur77. The source holds these as a separate data set.
Experiment [3] addresses Nur77. This is another data set of the same source.

As usually defined, the Kd is the concentration at which binding is half-saturated. High values mean weaker binding, low ones tighter binding.

Take `CCCCC/C=C\C[C@@H](O)/C=C/C=C\C/C=C\CCCC(=O)O` [12R-HETE]: the Kd at Nur77 [1] is 1.44 µM.
Compound `CCCCCCCC(=O)c1c(O)cc(O)cc1CC(=O)OCC` [Cytosporone B] registered a Kd on Nur77 [2] of 28.9 µM.
`CCCCC/C=C\C[C@H](O)/C=C/C=C\C/C=C\CCCC(=O)O` [12S-HETE] showed a Kd at Nur77 [3] of 13.9 µM.
